Measured values: PubChem BioAssay (NCI)
Several values for one entry are separate records, joined by “and”; a condition that tells them apart may be missing. Identical values can stand only once.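 Interpolation was linear, between the two tested concentrations surrounding the appropriate level; five concentrations were tested over 48 hours in 96-well plates. The concentration for 50% growth inhibition is given as GI50. Definition used: TGI = concentration required for complete inhibition of growth.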

Experiments:
Assay in all cases: growth of human tumour cells (NCI), 48 h
OVCAR-3 ovarian = tested on: OVCAR-3 ovarian
TK-10 renal = tested on: TK-10 renal
NCI/ADR-RES ovarian = tested on: NCI/ADR-RES ovarian
SN12C renal = tested on: SN12C renal
T-47D breast = tested on: T-47D breast
K-562 leukemia = tested on: K-562 leukemia
M14 melanoma = tested on: M14 melanoma

SMILES	GI50 (OVCAR-3 ovarian)	TGI (OVCAR-3 ovarian)	GI50 (TK-10 renal)	TGI (TK-10 renal)	GI50 (NCI/ADR-RES ovarian)	TGI (NCI/ADR-RES ovarian) [µM]	GI50 (SN12C renal)	TGI (SN12C renal) [µM]	GI50 (T-47D breast)	TGI (T-47D breast)	GI50 (K-562 leukemia) [µM]	TGI (K-562 leukemia)	TGI (M14 melanoma)	GI50 (M14 melanoma)
CO[C@@H]1CC[C@]2(C)OC[C@H](C)[C@@H]3C[C@@H](C)[C@@H](OC(C)=O)[C@@H]4[C@H]3[C@@H]2O[C@H]4C[C@@]1(C)O	78.1 µM	> 100 µM	> 100 µM	> 100 µM	> 100 µM	> 100	> 100 µM	> 100	> 100 µM	> 100 µM	> 100	> 100 µM	–	–
COC(=O)c1c(C)cc(OC)c(C/C=C(\C)CCCc2coc(C=C(C)C)c2)c1OC	–	> 100 µM	–	> 100 µM	–	> 100	–	> 100	–	> 100 µM	–	> 100 µM	> 100 µM	–
CCn1cc(-c2ccnc3[nH]c(-c4cccc(CN(C)C)c4)cc23)c(-c2ccc(NC(=O)N(C)C)cc2)n1	3.82 µM and 3.15 µM	23.9 µM and > 10 µM	6.77 µM and 1.67 µM	26 µM and > 10 µM	23.4 µM and > 10 µM	> 100	1.38 µM and 0.994 µM	> 57.8	13.3 µM and > 10 µM	77.3 µM and > 10 µM	–	17.2 µM and 2.96 µM	16.9 µM and > 10 µM	1.91 µM and 2.31 µM
C=C(CN(C)Cc1ccccc1)c1ccc(NC(=O)c2ccc(C(=C)CN(C)Cc3ccccc3)cc2)cc1	> 100 µM	> 100 µM	> 100 µM	> 100 µM	34.8 µM	> 100	> 100 µM	> 100	20.7 µM	87.4 µM	45	> 100 µM	> 100 µM	> 100 µM
C[C@H](CCOc1cccc(CC(=O)O)c1)N(Cc1cccc(C(F)(F)F)c1Cl)CC(c1ccccc1)c1ccccc1	4.77 µM	15.9 µM	10.3 µM	23.1 µM	6.97 µM	21.3	5.33 µM	18.7	4.47 µM	33.6 µM	4.9	52.9 µM	24.2 µM	7.23 µM
CN(C)CCN1CCC(Cc2ccccc2)CC1	> 80 µM	> 80 µM	> 80 µM	> 80 µM	> 80 µM	> 80	> 80 µM	> 80	> 80 µM	> 80 µM	15.4	> 80 µM	> 80 µM	> 80 µM
NC(=O)c1cc(I)ccc1NC(=O)/C=C/c1ccccc1	0.32 µM	1.01 µM	2.9 µM	44.1 µM	0.351 µM	3.92	0.69 µM	> 63.4	0.597 µM	> 65.7 µM	0.668	> 100 µM	> 100 µM	0.389 µM
COc1nc(=O)n(C2C=CC(=O)O2)cc1F (configuration not stated)	3.26 µM	11.2 µM	2.64 µM	12.2 µM	10.1 µM	37.4	11.6 µM	25.7	2.24 µM	7.24 µM	–	–	20.6 µM	5.82 µM
CCOC(=O)Nc1c(C)nc2ccccn12	> 100 µM	> 100 µM	> 100 µM	> 100 µM	–	–	> 100 µM	> 100	> 100 µM	> 100 µM	> 100	> 100 µM	> 100 µM	> 100 µM
CCCCCCCCSC1=C(Cl)C(=O)C(OC)=C(OC)C1=O	–	23.8 µM	–	28.5 µM	–	> 100	–	18.4	–	36.2 µM	–	> 100 µM	16.9 µM	–
O=C(O)c1ccc(CNCc2ccccc2)cc1	–	> 100 µM	–	> 100 µM	–	> 100	–	> 100	–	> 100 µM	–	> 100 µM	> 100 µM	–
O=c1[nH]c(O)c(C=Nc2ccc(-c3nc4ccccc4o3)cc2)c(=O)[nH]1	15.6 µM	57.4 µM	40.6 µM	> 100 µM	3.56 µM	9.59	> 100 µM	> 100	93.7 µM	> 100 µM	35	> 100 µM	> 100 µM	50.8 µM
C=CC12CCN(CC1)C(C(O)c1ccnc3ccc(OC)cc13)C2 (configuration not stated)	> 100 µM	> 100 µM	> 100 µM	> 100 µM	> 100 µM	> 100	> 100 µM	> 100	> 100 µM	> 100 µM	> 100	> 100 µM	> 100 µM	87.1 µM
NNc1ncnc2nc[nH]c12	3.56 µM	26.9 µM	2.94 µM	> 100 µM	3.37 µM	> 100	7.33 µM	> 100	3.67 µM	> 100 µM	3.4	> 100 µM	> 100 µM	2.76 µM
O=C(Nc1nc(-c2c[nH]c3ccccc23)cs1)c1n[nH]c(=O)c2ccccc12	13.6 µM	> 83.7 µM	14.4 µM	> 100 µM	6.74 µM	78.6	10.8 µM	> 100	> 46.4 µM	> 96.2 µM	1.27	> 100 µM	20.1 µM	3.48 µM
COC(=O)c1c2c(c(C)[n+]([O-])c1C)C(=O)C(NCc1ccc(Br)cc1)=CC2=O	0.301 µM	0.957 µM	–	–	1.97 µM	7.03	1.66 µM	4.09	1.52 µM	4.06 µM	2.38	> 100 µM	2.46 µM	1.14 µM
COC(=O)C1=CN(CC2=CC(=O)C(C)=CC2=O)C=C(C(=O)OC)C1c1ccccc1OC	13.2 µM	26.8 µM	16.7 µM	35.4 µM	17.4 µM	34.8	14.8 µM	32.9	52.8 µM	> 100 µM	0.495	14.9 µM	32.7 µM	17.3 µM
CCSc1nc(N=Cc2ccccc2O)c2cn[nH]c2n1	13.8 µM	61.2 µM	9.67 µM	36.6 µM	20.3 µM	63.6	26.3 µM	95.1	33.4 µM	> 100 µM	41.6	> 100 µM	33 µM	17.4 µM
